One may read the EC50 as the concentration that produces a half-maximal response. Low readings indicate a more potent agent, high ones a less potent agent.

Read-outs that look alike come from different tables or passages of the source.

For assay [1], the target named is wild-type α7 nAChR (Rattus norvegicus, UniProt Q05941). Description: Two-electrode voltage-clamp recording of Xenopus oocytes expressing wild-type α7. In general terms: Two-electrode voltage clamp holds a large cell at a set potential and records current.
Description: Mature (>9 cm) female Xenopus laevis African toads (Nasco, Ft. Atkinson, Wis.) were used as a source of oocytes. Prior to surgery, frogs were anesthetized by placing the animal in a 2 g/L solution of MS222 (3-aminobenzoic acid ethyl ester). Oocytes were removed from an incision made in the abdomen.
(§3) Subsequently, stage 5 oocytes were isolated and injected with 50 nl each of a mixture of the appropriate subunit cRNAs following harvest. Recordings were made 3 to 21 days after injection depending on the cRNAs being tested.
(§4) Voltage-clamp recording of whole oocate responses. Data were obtained by means of two-electrode voltage-clamp recording. […] This extracellular solution was used for all experiments unless otherwise noted.
(§5) Bath solution and drug applications are applied through a linear perfusion system to oocytes placed in Lucite chamber with a total volume of 0.5 ml. Drug delivery involves pre-loading a 1.8 ml length of tubing at the terminus of the perfusion system, while a Mariotte flask filled with Ringer's solution is used to maintain constant perfusion. Applications of drug solutions are then synchronized with acquisition. […] In addition, some oocyte recordings were made using a beta version of the OpusXpress 6000A (Axon Instruments, Union City, Calif.). OpusXpress is an integrated system that provides automated impalement and voltage clamp, which in our case permitted the study of four oocytes in parallel. Cells were automatically perfused with bath solution, and agonist solutions were delivered from a 96-well compound plate. In experiments using the OpusXpress system, the voltage and current electrodes were filled with 3 M KCl. In all experiments, bath flow rates were set at 6 ml/minute.
(§6) Experimental protocols and analysis of data from Xenopus oocytes. Current responses to drug application were studied under two-electrode voltage clamp at a holding potential of −50 mV unless otherwise noted (−60 mV for the OpusXpress system). Holding currents immediately prior to agonist application were subtracted from measurements of the peak response to agonist. All drug applications were separated by a wash period of 5 minutes unless otherwise noted. […] Means and standard errors (SEM) were calculated from the normalized responses of at least four oocytes for each experimental concentration.
(§7) For concentration-response relations, data were plotted using Kaleidagraph 3.0.2 (Abelbeck Software; Reading, Pa.), and curves were generated using the Hill equation: [formula] where Imax denotes the maximal response for a particular agonist/subunit combination, and n represents the Hill coefficient. Imax, n, and the EC50 were all unconstrained for the fitting procedures.
(§8) Calculations of peak amplitudes and net charge were made using pClamp either during acquisition or during subsequent Clampfit analysis.
Assay [2] addresses L247T mutant (UniProt P22770, L270T, species not given). It counts as cell-based. The note with it: for type of activity (agonist / antagonist): L247T.
Assay [3] deals with rat α7 TM2 T6'S (Rattus norvegicus, UniProt Q05941, T267S). Description: Two-electrode voltage-clamp recording of Xenopus oocytes expressing α7 TM2 T6'S mutant.
Description: Expression in Xenopus oocvtes. Mature (>9 cm) female Xenopus laevis African toads (Nasco, Ft. Atkinson, Wis.) were used as a source of oocytes. Prior to surgery, frogs were anesthetized by placing the animal in a 2 g/L solution of MS222 (3-aminobenzoic acid ethyl ester). Oocytes were removed from an incision made in the abdomen.
as §3, §4, §5, §6, §7, §8
The target of assay [4] is T1, rat α7 TM2 T6'F (Rattus norvegicus, UniProt Q05941, T267F).
T1 construct: expressed in transfected cells; host or cells: Xenopus laevis oocytes injected with cRNA
The assay can be described thus: Two-electrode voltage-clamp recording of Xenopus oocytes expressing α7 TM2 T6'F mutant. The class given is cell-based. From the text:
Site-directed mutagenesis.
(§1) Expression in Xenopus oocvtes.
(§2) Voltage-clamp recording of whole oocate responses.

Assay [5] concerns the target T2, muscle-type receptors (Mus musculus, UniProt P02716+P04756).
T2 construct: expressed in transfected cells; host or cells: Xenopus laevis oocytes injected with cRNA
Description: Two-electrode voltage-clamp recording of Xenopus oocytes expressing muscle-type receptors. It counts as cell-based.
Text: as §1, §2

On to `NCCc1c[nH]c2ccc(O)cc12` [5-HT], for which the “type of activity (agonist / antagonist / potentiation)” value in assay [1] (Wild type) and in assay [3] (T6'S) was “antagonist” each time. In assay [2], the “type of activity (agonist / antagonist)” value is on record as “agonist”.

Take `Oc1ccc2[nH]ccc2c1` [5HI, 5-hydroxy-indole]: the “type of activity (agonist / antagonist / potentiation)” value in assay [1] (Wild type) was “potentiates”; in assay [3] (T6'S) it was “does not potentiate”.

In the case of `O=C1NCC2(CN3CCC2CC3)O1` (centres unmarked) [AR-R17779], the “% agonist” value was 78% agonist 10 μM in assay [1] (Wild type) and 90% agonist 30 μM in assay [3] (T6'S).

In the case of `C[N+](C)(C)CCO` [Choline], the EC50 in assay [1] is 300 µM; in assay [2], 12 µM; in assay [3], 2000 µM; in assay [3] (EC50, T6'S column), about 360 µM. The “% agonist” value was 100% agonist 300 μM in assay [1] (Wild type) and 95% agonist 2 mM in assay [3] (T6'S).

For the compound `O=c1cccc2n1C[C@@H]1CNC[C@H]2C1` [Cytisine], the “% agonist” value is 73% agonist 13 μM in assay [1] and 80% agonist 43 μM in assay [3]. In addition, the results for the EC50 in assay [1] and in assay [3] were 13 µM and 43 µM, respectively.

For the compound `COc1ccc(/C=C2\CCCN=C2c2cccnc2)c(OC)c1` [GTS-21 (DMXB)], the EC50 came to 5 µM in assay [1] and 3 µM in assay [3]. In addition, the results for the “% agonist” value in assay [1] (Wild type) and in assay [3] (T6'S) were 32% and 12%, respectively. Further, in assay [2], the “type of activity (agonist / antagonist)” value was “full”.

Consider `C[N+](C)(C)CCCCCC[N+](C)(C)C` [Hexamethonium], for which the “type of activity (agonist / antagonist / potentiation)” value in assay [1] (Wild type) and in assay [3] (T6'S) was “antagonist” each time. Also, the “type of activity (agonist / antagonist)” value in assay [2] is “agonist”.

With `CNCC/C=C/c1cccnc1` [TC-2403], the EC50 in assay [1] was 240 µM; in assay [3], 400 µM. For the same compound, the “% agonist” value stood at 16% in assay [1] (Wild type) and 18% agonist in assay [3] (T6'S).

As to `CN1[C@@H]2CC[C@H]1C[C@@H](OC(=O)c1c[nH]c3ccccc13)C2` [Tropisetron], the results for the “% agonist” value in assay [1] (Wild type) and in assay [3] (T6'S) were 38% and 30%, respectively.

For the compound `COc1cc2c3cc1Oc1cc(ccc1O)C[C@@H]1c4c(cc(OC)c(O)c4Oc4ccc(cc4)C[C@@H]3N(C)CC2)CC[N+]1(C)C` [Tubocurarine], the “type of activity (agonist / antagonist / potentiation)” value in assay [1] (Wild type) and in assay [3] (T6'S) was “antagonist” throughout. Further, the “type of activity (agonist / antagonist)” value in assay [2] is on record as “agonist”.

As to `[Zn+2]` [Zinc], the “type of activity (agonist / antagonist / potentiation)” value in assay [1] (Wild type) and in assay [3] (T6'S) was “antagonist” each time. Besides, the “type of activity (agonist / antagonist)” value in assay [2] is “agonist”.

Turning to `C[N+](C)(C)CCOC(=O)CCC(=O)OCC[N+](C)(C)C` [succinylcholine], the activation of receptor entry is “dramatic increase in sensitivity” in assay [4] (100 μM succinylcholine), “relatively ineffective” in assay [1] and “virtually no response” in assay [3]. Moreover, the concentration-response function result is “relatively potent, full agonist” in assay [4] (full range of concentrations); “respond poorly” in assay [1] (full range of concentrations); “respond poorly” in assay [3] (full range of concentrations). In addition, the type of activity result in assay [5] was “Selective Agonist”.

These data come from US20050170360A1, “Variant neuronal nicotinic alpha-7 receptor and methods of use” (priority 2004, published 2005).
